Source: patent publication US10273237B2, “Imidazopyridazine compounds useful as modulators of IL-12, IL-23 and/or IFN-α responses” (BRISTOL-MYERS SQUIBB COMPANY, priority 2013, dated 2019)
Like-named read-outs stand apart in the source and are kept apart here.

Key:
[1] = tested on: IL-23-stimulated Kit225 T cells with STAT-dependent luciferase reporter; assay: Kit225 T cell assay, STAT-dependent luciferase reporter, IL-23 stimulated; assay type: cell-based, human; conditions: read-out: IL-23 Kit225 Reporter, LE (IC50)
Method: (§1) Kit225 T cells with a stably-integrated STAT-dependent luciferase reporter were plated in RPMI (GIBCO) containing 10% heat-inactivated FBS (GIBCO) and 100 U/mL PenStrep (GIBCO). The cells were then stimulated with either 20 ng/mL human recombinant IL-23 or 200 U/mL human recombinant IFNα (PBL InterferonSource) for 5-6 hours. Luciferase expression was measured using the STEADY-GLO® Luciferase Assay System (PROMEGA®) according to the manufacturer's instructions.

[2] = tested on: IFNα-stimulated Kit225 T cells with STAT-dependent luciferase reporter; assay: Kit225 T cell assay, STAT-dependent luciferase reporter, IFNα stimulated; assay type: cell-based, human; conditions: 5-6 hours, read-out: IFNa Kit225 Reporter, LE (IC50)
Method: as §1

[3] = 20 ng/mL human recombinant IL-23, 5-6 hours
[4] = 200 U/mL human recombinant IFNα
[5] = Homo sapiens, KIT225, 20 ng/mL human recombinant IL-23, 5-6 hours
[6] = Homo sapiens, KIT225, 200 U/mL human recombinant IFNα

IC50 [1, 3] [nM]	IC50 [2, 4] [nM]	IC50 [1, 5] [nM]	IC50 [2, 6] [nM]	SMILES
220	160			CNc1cc(Nc2cncn(-c3cccc(C(C)O)n3)c2=O)nn2c(C(=O)NC3CCC3)cnc12 (racemic) [Example 87]
460	440			CCC(C)NC(=O)c1cnc2c(NC)cc(Nc3cccn(C)c3=O)nn12 (single isomer, unassigned) [Example 72]
190	120			CCC(C)NC(=O)c1cnc2c(NC)cc(Nc3cccn(C)c3=O)nn12 (single isomer, unassigned) [Example 73]
190	130			CCC(C)NC(=O)c1cnc2c(NC)cc(Nc3cccn(-c4ccc(C)nn4)c3=O)nn12 (single isomer, unassigned) [Example 75]
410	560			CCC(C)NC(=O)c1cnc2c(NC)cc(Nc3cncn(-c4ccccn4)c3=O)nn12 (single isomer, unassigned) [Example 76]
		480	310	CNc1cc(Nc2cccn(C)c2=O)nn2c(C(=O)NC3(C#N)CC3)cnc12 [Example 1, N-(1-Cyanocyclopropyl)-6-(1-methyl-2-oxo-1,2-dihydropyridin-3-ylamino)-8-(methylamino)imidazo[1,2-b]pyridazine-3-carboxamide]
		160	90	CNc1cc(Nc2cccn(-c3ccc(C#N)cc3)c2=O)nn2c(C(=O)NC3CC3)cnc12 [Example 2, 6-((1-(4-Cyanophenyl)-2-oxo-1,2-dihydropyridin-3-yl)amino)-N-cyclopropyl-8-(methylamino)imidazo[1,2-b]pyridazine-3-carboxamide]
		520	320	CNc1cc(Nc2cccn(-c3ccccc3)c2=O)nn2c(C(=O)NC(CO)CCl)cnc12 (stereo not drawn) [Example 4, N-(1-Chloro-3-hydroxypropan-2-yl)-8-(methylamino)-6-(2-oxo-1-phenyl-1,2-dihydropyridin-3-ylamino)imidazo[1,2-b]pyridazine-3-carboxamide]
		150	150	CNc1cc(Nc2cccn(-c3nccc(C(F)(F)F)n3)c2=O)nn2c(C(=O)NC3CCC3)cnc12 [Example 5, N-Cyclobutyl-8-(methylamino)-6-((2-oxo-1-(4-(trifluoromethyl)pyrimidin-2-yl)-1,2-dihydropyridin-3-yl)amino)imidazo[1,2-b]pyridazine-3-carboxamide]
		270	300	CNc1cc(Nc2cccn(-c3ccccc3)c2=O)nn2c(C(=O)N[C@@H]3CCOC3)cnc12 [Example 7, (R)-8-(Methylamino)-6-((2-oxo-1-phenyl-1,2-dihydropyridin-3-yl)amino)-N-(tetrahydrofuran-3-yl)imidazo[1,2-b]pyridazine-3-carboxamide]
		670	380	CNc1cc(Nc2ccnn(-c3ccccc3)c2=O)nn2c(C(=O)NC3CCC3)cnc12 [Example 8, N-Cyclobutyl-8-(methylamino)-6-((3-oxo-2-phenyl-2,3-dihydropyridazin-4-yl)amino)imidazo[1,2-b]pyridazine-3-carboxamide]
		120	40	CNc1cc(Nc2cccn(C)c2=O)nn2c(C(=O)NCC(C)(C)CO)cnc12 [Example 9, N-(3-Hydroxy-2,2-dimethylpropyl)-6-((1-methyl-2-oxo-1,2-dihydropyridin-3-yl)amino)-8-(methylamino)imidazo[1,2-b]pyridazine-3-carboxamide]
150	120			CNc1cc(Nc2cccn(-c3ccc(F)cc3)c2=O)nn2c(C(=O)NC3CC3)cnc12 [Example 10]
310	260			CNc1cc(Nc2cc(F)cn(C)c2=O)nn2c(C(=O)NC3(C#N)CC3)cnc12 [Example 11]
170	100			CNc1cc(Nc2cccn(-c3ccc(F)cc3)c2=O)nn2c(C(=O)NC3(C#N)CC3)cnc12 [Example 12]
150	230			CNc1cc(Nc2cccn(-c3ccc(C#N)cc3)c2=O)nn2c(C(=O)NC3(C#N)CC3)cnc12 [Example 13]
570	460			CNc1cc(Nc2cccn(-c3ccc(F)cc3)c2=O)nn2c(C(=O)NCC(C)(CO)CO)cnc12 [Example 14]
190	270			CNc1cc(Nc2cc(F)cn(CC3CC3)c2=O)nn2c(C(=O)NC3CC3)cnc12 [Example 15]
400	360			CNc1cc(Nc2cc(F)cn(CC3CC3)c2=O)nn2c(C(=O)NC3(C#N)CC3)cnc12 [Example 16]
240	180			CNc1cc(Nc2cccn(-c3ccc(F)nc3)c2=O)nn2c(C(=O)NC3CC3)cnc12 [Example 17]
480	150			CNc1cc(Nc2cccn(-c3ccc(C(F)F)cc3)c2=O)nn2c(C(=O)NC3CC3)cnc12 [Example 18]
330	400			CNc1cc(Nc2cccn(-c3ccc(C(F)F)cc3)c2=O)nn2c(C(=O)NCC(C)(CO)CO)cnc12 [Example 19]
130	80			CNc1cc(Nc2cccn(-c3ccc(C(F)F)cc3)c2=O)nn2c(C(=O)NC3(C#N)CC3)cnc12 [Example 20]
610	110			CNc1cc(Nc2cc(F)cn(CCF)c2=O)nn2c(C(=O)NC3CC3)cnc12 [Example 21]
150	50			CNc1cc(Nc2cc(Cl)cn(C)c2=O)nn2c(C(=O)NC3CC3)cnc12 [Example 22]
70	20			CNc1cc(Nc2cc(Cl)cn(C)c2=O)nn2c(C(=O)NC3(C#N)CC3)cnc12 [Example 23]

IC50 [1, 3] [nM]	IC50 [2, 4] [nM]	IC50 [1, 5] [nM]	IC50 [2, 6] [nM]	SMILES
150	40			CNc1cc(Nc2cc(F)cn(C)c2=O)nn2c(C(=O)NCC(C)(C)CO)cnc12 [Example 24]
270	110			CNc1cc(Nc2cccn(-c3ccc(C(C)(C)O)cc3)c2=O)nn2c(C(=O)NC3CC3)cnc12 [Example 26]
660	450			CNc1cc(Nc2cccn(-c3ccc(C(C)(C)O)cc3)c2=O)nn2c(C(=O)NC3(C#N)CC3)cnc12 [Example 27]
600	300			CNc1cc(Nc2cccn(-c3ccc(F)nc3)c2=O)nn2c(C(=O)NC3(C#N)CC3)cnc12 [Example 28]
340	200			CNc1cc(Nc2cccn(-c3ccc(F)cc3)c2=O)nn2c(C(=O)NCC3(CO)CC3)cnc12 [Example 29]
390	200			CNc1cc(Nc2cc(F)cn(C)c2=O)nn2c(C(=O)NCC3(CO)CC3)cnc12 [Example 30]
280	260			CNc1cc(Nc2cccn(-c3ccc(F)cn3)c2=O)nn2c(C(=O)NCC(C)(C)CO)cnc12 [Example 33]
60	50			CNc1cc(Nc2cccn(-c3ccccn3)c2=O)nn2c(C(=O)NC3CCC3)cnc12 [Example 34]
100	100			CNc1cc(Nc2cccn(-c3ccc(F)cn3)c2=O)nn2c(C(=O)NC3CC3)cnc12 [Example 36]
20	30			CNc1cc(Nc2cccn(-c3ccc(F)cn3)c2=O)nn2c(C(=O)N[C@@H]3C[C@@H]3F)cnc12 [Example 37]
160	50			CNc1cc(Nc2cccn(-c3ccc(F)nc3)c2=O)nn2c(C(=O)N[C@@H]3C[C@@H]3F)cnc12 [Example 40]
80	60			CNc1cc(Nc2cccn(-c3ncccc3F)c2=O)nn2c(C(=O)NC3CC3)cnc12 [Example 41]
50	20			CNc1cc(Nc2cccn(-c3ncccc3F)c2=O)nn2c(C(=O)N[C@@H]3C[C@@H]3F)cnc12 [Example 42]
590	110			CNc1cc(Nc2cc(Cl)cn(C)c2=O)nn2c(C(=O)NC3(C#N)CCC3)cnc12 [Example 43]
380	130			CNc1cc(Nc2cccn(C3CC3)c2=O)nn2c(C(=O)NC3CC3)cnc12 [Example 44]
370	200			CNc1cc(Nc2cccn(C3CC3)c2=O)nn2c(C(=O)NC3(C#N)CC3)cnc12 [Example 45]
360	160			CNc1cc(Nc2cccn(-c3cccc(C)n3)c2=O)nn2c(C(=O)NC3CC3)cnc12 [Example 46]
110	40			CNc1cc(Nc2cccn(-c3cccc(C)n3)c2=O)nn2c(C(=O)NC3CCC3)cnc12 [Example 47]
20	50			CNc1cc(Nc2cccn(-c3cccc(C)n3)c2=O)nn2c(C(=O)N[C@@H]3C[C@@H]3F)cnc12 [Example 49]
160	220			CNc1cc(Nc2cc(F)cn(C3CC3)c2=O)nn2c(C(=O)NC3(C#N)CC3)cnc12 [Example 51]
210	130			CNc1cc(Nc2cccn(-c3ncccn3)c2=O)nn2c(C(=O)NC3CCC3)cnc12 [Example 52]
170	80			CNc1cc(Nc2cccn(-c3cccc(F)c3)c2=O)nn2c(C(=O)NC3(C#N)CC3)cnc12 [Example 53]
180	230			CNc1cc(Nc2cccn(-c3ncccn3)c2=O)nn2c(C(=O)N[C@@H]3C[C@@H]3F)cnc12 [Example 55]
60	30			CNc1cc(Nc2cccn(-c3ccon3)c2=O)nn2c(C(=O)NC3CCC3)cnc12 [Example 56]
300	520			CNc1cc(Nc2cccn(C)c2=O)nn2c(C(=O)N[C@@H]3CCOC3)cnc12 [Example 57]
